Reference: a melting point compilation (Tetko et al.; mined from patent text by program, amines drawn as free bases though some values may be those of a salt)

SMILES	melting point [°C]
CCc1nn(-c2ccc(C(=N)N)cc2)c(=O)n1-c1ccc(CCC(=O)OC(C)C)cc1	> 250
CN1CC=C(c2c[nH]c3ccc(Oc4ccccn4)cc23)CC1	240 to 245
N#Cc1cnc2ccc(NC(=O)C#CCN3CCOCC3)cc2c1Nc1cccc(Br)c1	112 to 115
CC(O)C(C)(C)NC(=O)[C@@H]1CCCN1C(=O)[C@@H](O)[C@H](Cc1ccccc1)NC(=O)[C@H](CC(N)=O)NC(=O)OCc1ccccc1 (stereo partly specified)	102 to 104
CC(C)(C)NCC(O)COc1ccc(-c2nc(C(F)(F)F)c[nH]2)cc1 (stereo unspecified)	186
Cn1ccnc1SCCN1CCC(=C2c3ccn(C)c3CCn3ccnc32)CC1	200
C=CCN(C)c1c(C=NO)c(=O)n(C)c(=O)n1C	95.5 to 97.1
CC(C)OC(=O)c1ncn2c1CN(C)C(=O)c1cc(F)ccc1-2	243 to 244
CCOC(Cc1ccc(OCCN2CCOc3ccccc32)cc1)C(=O)NCc1ccccc1 (stereo unspecified)	94 to 96
N#CC(C(=O)N1CCOCC1)=C1Nc2ccccc2O1	217 to 219
O=S(=O)(c1ccccc1)c1c[nH]c2ccc(CCO)cc12	55 to 60
CN(C)C(=O)OCCOc1ccc(CC(NC(=O)OC(C)(C)C)C(O)CNCC(O)C(Cc2ccccc2)NC(=O)O)cc1 (stereo unspecified)	128 to 132
CNc1ccc2n[nH]c(=O)n2n1	> 348
COc1cc(C(C)=O)ccc1OCCCN1CCN(c2nn(C(=O)c3ccccc3)c3cccc(F)c23)CC1	138 to 140
CCN(CC)CCOc1ccc(-c2nnc(CSCCOc3ccccc3)o2)cc1	32 to 35
CN(CCN)CCNC(=O)c1nc(Br)c(N)nc1N	148 to 150
COc1ccc2cc([C@H](C)C(=O)OCCN(C)C(=O)c3ccc(CO[N+](=O)[O-])cc3)ccc2c1	108 to 115
COc1ccc(N(C(C)=O)C2=NN(c3ccc([N+](=O)[O-])cc3)C(=O)C2Br)cc1 (stereo unspecified)	163 to 164
CN(Cc1cc(C(F)(F)F)cc(C(F)(F)F)c1)C(=O)c1nc(Cl)c2ccccc2c1-c1ccccc1	176 to 177
COc1ccc2c(cc(CCC(=O)O)n2S(=O)(=O)c2ccccc2)n1	136 to 139
CCOC(=O)N(CC)c1cccc(-c2ccc3nnc(C)n3n2)c1	132 to 135
Cc1cccc(COc2cccnc2NC(=N)Nc2ccc(Cl)cc2)c1F	179 to 181
O=C(NCC(=O)c1cccs1)c1ccc(Cl)cc1	157 to 159
CSc1ccc(-c2nnc(Cl)cc2-c2ccccc2)cc1	158
O=C(c1cc(C(F)(F)F)cc(C(F)(F)F)c1)N1CCC2(CC1)C(=O)NCN2c1ccc(Cl)cc1	233 to 235
CCc1c2nc(-c3cc(S(C)(=O)=O)ccc3OCC(C)C)[nH]c(=O)c2nn1Cc1ccccn1	235 to 238

SMILES	melting point [°C]
N#Cc1cnc2cc(F)ccc2c1Cl	163 to 165
O=c1c2cccnc2c(-c2cccc(Cl)c2)nn1Cc1ccsc1	165 to 166
COc1ccc(C(=O)c2ccc(Cl)cc2Cl)cc1Cl	98
O=c1oc(-c2ccccc2)nc2cccc(F)c12	162 to 164
O=C(O)C1CCCN1C(=O)CCc1cccc(-c2nc(=O)c3ccccc3s2)n1 (stereo unspecified)	210 to 211
c1ccc(C2CNc3ccccc3C2)cc1 (stereo unspecified)	84 to 86
Cn1nc2cccc(OCC3CC3)c2c1S(N)(=O)=O	139 to 141
Cc1[nH]c(=O)n(C)c1-c1cc(C(C)(C)C)c(O)c(C(C)(C)C)c1	285 to 286
CC(C)(C)NCC(O)COc1ccc(-c2nc(C#N)c[nH]2)cc1 (stereo unspecified)	174 to 177
N#Cc1cccc(C2=Nc3ccc(C#Cc4ccc(OC(F)(F)F)cc4)cc3NC(=O)C2)c1	239 to 241
CCCCCCCCNC(=O)N1CCC(c2nc(N)nc3ccccc23)CC1	85 to 87
Cc1oc(-c2ccccc2)nc1COc1ccc(CON=C(CCCCCCC(=O)O)c2ccc(Cl)cc2)cc1	54 to 57
COc1cccc(C=C2c3ccccc3CCc3ccccc32)c1F	149
CCOc1cc(C(=O)CCCC2CCCCC2)c(OC)cc1C	37 to 38
N#CC1(N2CCN(c3ccccc3)CC2)CCCCC1	133 to 135
COc1cc(CCC(=O)C2=C(Cl)CCC2)cc(OS(=O)(=O)c2ccc(C)cc2)c1OC	73
O=C(O)c1ccccc1C(=O)NCCCSc1ccncc1	151 to 153
Cc1cc(O)c2c(c1)C(C)(C)CC2(C)C	66
CCCCCCCCCCCCCCSCc1ccc(C(C)=O)o1	55 to 57
COC(=O)N(C(=O)CC(O)(Cn1cncn1)c1ccc(Cl)cc1Cl)C(=O)OC (stereo unspecified)	155 to 156
O=C1N(Cc2nc3cc(F)ccc3[nH]2)c2ccccc2C12COc1cc3c(cc12)OCO3 (stereo unspecified)	138 to 142
CC(Sc1ccc(OC(C)(C)C(=O)O)cc1)c1cccc2c1cnn2-c1ccc(C(F)(F)F)cc1 (racemic)	85 to 90
Nc1cc(N2CC(c3ccccc3)OC2=O)ccn1 (stereo unspecified)	155 to 156
CCCNC(=O)NNC(=O)c1ccccc1	172 to 174
COc1ccc(C(=O)Nc2ccc(F)cc2)cc1NS(=O)(=O)c1ccc([N+](=O)[O-])cc1	208 to 211
CC(C(=O)O)c1cccc(OCCC(=O)O)c1 (stereo unspecified)	144 to 146

SMILES	melting point [°C]
CCCC[Si](C)(C)CCSCCCNC(=O)n1cc(F)c(=O)[nH]c1=O	83.5 to 84
CCCCCCc1cc2c(s1)NC(=O)CN=C2c1ccccc1C	162 to 163
CCc1cn(C2CC(F)C(CO)O2)c(=O)[nH]c1=S (stereo unspecified)	139 to 140
N#CCC(=O)c1nn(-c2ccccc2)c2c1COc1c(CN3CCOCC3)cc(F)cc1-2	187 to 189
Nc1ccc(SC2=CCCCC2)cc1[N+](=O)[O-]	93 to 95
COc1ccc(C(=NO)c2sccc2Br)cc1	110 to 115
COc1cc2c(cc1Cl)CC(=O)NN=C2c1ccc([N+](=O)[O-])cc1	258 to 262
CCCN1C=CSC1S(=O)(=O)N=NC(=O)Nc1nc(OC)cc(OC)n1 (stereo unspecified)	166 to 167
COc1cc(CC#N)ccc1OCC#Cc1ccccc1	74 to 75
CSC1=NC(=O)C(=Cc2cc(C(C)(C)C)c(O)c(C(C)(C)C)c2)N1C	177 to 179
CSc1nc(O)nn1C(C)C	90 to 92
CC1(C)OC(=O)c2ccc(C(c3c(F)cc([N+](=O)[O-])cc3F)n3cncn3)cc21 (stereo unspecified)	163 to 164
COC(=O)NNC(=O)C=Cc1ccccc1	165
Fc1cccc2c(NCCc3nc(-c4ccccc4)cs3)ccnc12	134 to 135
NC(C(=O)CCC(=O)O)c1ccc(Nc2n[nH]c3ncnc(Nc4cccc(Cl)c4)c23)cc1 (stereo unspecified)	205 to 207
O=C(O)c1sccc1OC(F)F	98 to 100
NC(=O)c1cccc(-c2ccc(F)c3cc(Cc4cccc(C(F)(F)F)c4)sc23)c1	139 to 140
CC(C)(C)n1[nH]c(Cc2ccncc2)c2c(=O)nc(-c3ccncc3)nc1-2	233 to 235
Cc1ccc(Sc2c(N)cc(C(=O)O)cc2SCc2ccccc2)cc1	177 to 179
CC(C)Oc1ccccc1NC(=O)Nc1ccc2cnccc2n1	78 to 80
COC(=O)C1=C(C)NC(C)=C(C(=O)NCCOC(=O)N2CCC3(CC2)CC(=O)N(OC)C3=O)C1c1cccc([N+](=O)[O-])c1 (stereo unspecified)	107 to 113
Cc1c(C)c2c(c(C)c1NC(=O)CC(C)(C)C)C(c1ccc(C(C)CC(=O)O)cc1)CO2 (stereo unspecified)	209 to 210
Nc1ncnc2c1cnn2C1OC(CO)C(O)C1O (stereo unspecified)	253
COc1nc(C(F)(F)C(F)(F)F)c(F)c(=O)n1-c1cc(OC(C)C)c(Cl)cc1F	69 to 71
O=C(NCC(F)(F)F)C1(CCCc2ccccc2)c2ccccc2-c2ccccc21	86 to 88
COc1cc(C=CC(=O)c2ccc(C3CCCCC3)cc2)cc(OC)c1	75.5 to 76.2

SMILES	melting point [°C]
CC(C)(C)c1ccc2c(c1)Cc1cc(C(C)(C)C)ccc1-2	120 to 121
COC(=O)Cc1ccc(OS(=O)(=O)C(F)(F)F)c([N+](=O)[O-])c1	44 to 45
ON=C(Cl)c1ccc(Cl)c(Cl)c1	104 to 106
COCc1c(I)cc(Cl)nc1OC	69 to 72
Cc1ccc(C)n1CCN1CCCC1=O	66 to 68
CCOc1ccc(N(Cc2ccccc2)Cc2ccccc2)cc1	80 to 82
Clc1ccc(CN2CC3(COc4cc5c(cc43)OCO5)c3ccccc32)o1 (stereo unspecified)	148 to 150
CCCCC(=N)NC(=O)Nc1ccc(Cl)cc1	164 to 169
CCOc1ccc(C(=O)C=Cc2ccc(SC)cc2)cc1	108
CON(C(=O)c1cn(C)nc1C(F)F)C(C)C1CCC(C)=CC1(C)C (stereo unspecified)	95 to 105
CCOC(=O)c1ncn2c1[C@@H]1CCCN1C(=S)c1ccccc1-2	227 to 229
Nc1cccc(-c2ccc(CCNCc3cccc(Cl)c3)c3ccccc23)n1	60 to 75
C[C@@]1(CO)CCC(=O)O1	44.5 to 46.5
CCC1CC(=O)N(Cc2ccc(N)cc2)N=C1c1ccc(OC)c(OC)c1 (stereo unspecified)	49
Cc1nc(NC(=O)C(c2ccccc2)c2ccccc2)no1	153
COc1ccc2c(c1)N(CCCN1CCC(CCO)CC1)c1cccc(SC)c1S2	101 to 103
O=Cc1cn(-c2ccccc2)nc1OCc1ccccc1	153 to 154
O=C(O)c1cc(Br)c2ccccn2c1=O	> 250
Nc1c(Br)cc(S(N)(=O)=O)cc1[N+](=O)[O-]	216 to 218
Cc1ccc(C(=O)/C(=C\c2ccccc2)C(=O)OC(C)(C)C)c(O)c1	92 to 95
COC(=O)C1=C(C)Nc2ccccc2SC1c1ccc(C)cc1 (stereo unspecified)	148 to 150
CCOC(=O)c1cc2ccc(N(CC)CC)cc2oc1=O	77 to 78
[N-]=[N+]=NCC(O)(Cn1cncn1)c1ccc(Cl)cc1Cl (stereo unspecified)	117 to 119
